Values quoted from earlier work as cited in patent US6428772B1, “Acne treatment composition with cooling effect” (Blistex Inc., priority 2001, dated 2002).
Read-outs that look alike come from different tables or passages of the source.

Legend:
[1] = not given; remark: listed apart in the source
[2] = system: histamine induced itching; settings: Neuroscience Letters 1995, 187:3, pp. 157-160

| pH of the solution produced (1 gram in about 460 ml of water) | volume of water dissolving 1 gram (1 gram, water, room temperature) | solubility in water (water, room temperature) | volume of alcohol dissolving 1 gram ([1]; 1 gram) | SMILES | solubility in water (water) | solubility in alcohol [1] | effect on histamine induced itching [2] |
| --- | --- | --- | --- | --- | --- | --- | --- |
| – | – | – | – | O=C(OOC(=O)c1ccccc1)c1ccccc1 [Benzoyl peroxide, benzoyl peroxide] | sparingly soluble | sparingly soluble | – |
| 2.4 | about 460 ml | about 0.2 % by weight | about 2.7 ml | O=C(O)c1ccccc1O [Salicylic acid, salicylic acid] | sparingly soluble | – | – |
| – | – | – | – | CC1CCC(C(C)C)C(O)C1 (centres unmarked) [menthol] | – | – | effective |
